Data published in US20090124636A1, “CHEMICAL COMPOUNDS” (priority 2006, published 2009).

test system: HIV-1 fusion; experiment: cells; format: cell-based; conditions: HIV cell fusion assay; HeLa P4 (CCR5/CD4) and CHO-Tat10 (gp160 JRFL) cells; read-out: IC50
Description: The gp160 induced cell-cell fusion assay uses a HeLa P4 cell line and a CHO-Tat10 cell line.
The HeLa P4 cell line expresses CCR5 and CD4 and has been transfected with HIV-1 LTR-β-Galactosidase. The media for this cell line is Dulbecco modified eagle's medium (D-MEM) (without L-glutamine) containing 10% foetal calf serum (FCS), 2 mM L-glutamine, penicillin/streptomycin (Pen/Strep; 100 U/mL penicillin+[…] streptomycin), and 1 μg/ml puromycin.
The CHO cell line is a Tat (transcriptional trans activator)-expressing clone from a CHO JRR17.1 cell line that has been transfected with pTat puro plasmid. The media for this cell line is rich medium for mammalian cell culture originally developed at Roswell Park Memorial Institute RPMI1640 (without L-glutamine) containing 10% FCS, 2 mM L-glutamine, 0.5 mg/ml Hygromycin B and 12 μg/ml puromycin. The CHO JRR17.1 line expresses gp160 (JRFL) and is a clone that has been selected for its ability to fuse with a CCR5/CD4 expressing cell line.
Upon cell fusion, Tat present in the CHO cell is able to transactivate the HIV-1 long terminal repeat (LTR) present in the HeLa cell leading to the expression of the β-Galactosidase enzyme. This expression is then measured using a Fluor Ace™ β-Galactosidase reporter assay kit (Bio-Rad cat no. 170-3150). This kit is a quantitative fluorescent assay that determines the level of expression of β-galactosidase using 4-methylumbelliferyl-galactopyranoside (MUG) as substrate. β-Galactosidase hydrolyses the fluorogenic substrate resulting in release of the fluorescent molecule 4-methylumbelliferone (4 MU). Fluorescence of 4-methylumbelliferone is then measured on a fluorometer using an excitation wavelength of 360 nm and emission wavelength of 460 nm.

Point of comparison: `Cc1onc(C(C)C)c1C(=O)N1CCC(N2CC[C@@H](N(Cc3ccccc3)C(=O)C3CC3)C2)CC1` [Example 42], IC50 66.3 nM. Against it:
- Cc1cccc(C)c1C(=O)N1CCC(N2CC[C@@H](N(Cc3ccccc3)C(=O)C3CCC3)C2)CC1 [Example 5] — 250-fold lower, 0.27 nM
- Cc1cc[n+]([O-])c(C)c1C(=O)N1CCC(N2CC[C@@H](N(Cc3ccccc3)C(=O)C3CC3)C2)CC1 [Example 54] — 1.9-fold lower, 34.3 nM
- Cc1ccnc(C)c1C(=O)N1CCC(N2CC[C@@H](N(Cc3cccc(F)c3)C(=O)C(C)C)C2)CC1 [Example 33] — 1.6-fold lower, 42.2 nM
- COCC(=O)N(Cc1ccccc1)[C@@H]1CCN(C2CCN(C(=O)c3c(C)cccc3C)CC2)C1 [Example 4] — 290-fold lower, 0.23 nM
- COCC(=O)N(Cc1ccccc1)[C@@H]1CCN(C2CCN(C(=O)c3ccccc3C(F)(F)F)CC2)C1 [Example 55] — within 1.5-fold, 48.1 nM
- COc1cc(Cl)ccc1C(=O)N1CCC(N2CC[C@@H](N(Cc3ccccc3)C(=O)C3CC3)C2)CC1 [Example 53] — 1.6-fold higher, 104 nM
- Cc1cc[n+]([O-])c(C)c1C(=O)N1CCC(C)(N2CC[C@@H](N(Cc3ccccc3)C(=O)C3CC3)C2)CC1 [Example 65] — 2.5-fold lower, 26.5 nM
- Cc1ccnc(C)c1C(=O)N1CCC(N2CC[C@@H](N(Cc3ccccc3)C(=O)C3CC3)C2)CC1 [Example 21] — 81-fold lower, 0.82 nM
- COCC(=O)N(Cc1ccccc1F)[C@@H]1CCN(C2CCN(C(=O)c3c(F)cccc3Cl)CC2)C1 [Example 50] — within 1.5-fold, 77.7 nM
- Cc1ncnc(C)c1C(=O)N1CCC(N2CC[C@@H](N(Cc3ccccc3F)C(=O)C3CC(F)(F)C3)C2)CC1 [Example 37] — within 1.5-fold, 62.6 nM
- Cc1ncnc(C)c1C(=O)N1CCC(C)(N2CC[C@@H](N(Cc3ccccc3)C(=O)C3CC(F)(F)C3)C2)CC1 [Example 67] — within 1.5-fold, 44.3 nM
- Cc1cccc(C)c1C(=O)N1CCC(N2CC[C@@H](N(Cc3cccc(F)c3)C(=O)C3CC3)C2)CC1 [Example 9] — 83-fold lower, 0.8 nM
- Cc1ccnc(C)c1C(=O)N1CCC(N2CC[C@@H](N(Cc3ccccc3)C(=O)C(C)C)C2)CC1 [Example 30] — 3.5-fold lower, 18.9 nM
- CCc1noc(C)c1C(=O)N1CCC(C)(N2CC[C@@H](N(Cc3ccccc3)C(=O)C3CC3)C2)CC1 [Example 68] — within 1.5-fold, 61.6 nM
- Cc1ncnc(C)c1C(=O)N1CCC(N2CC[C@@H](N(Cc3cccc(F)c3)C(=O)C3CC(F)(F)C3)C2)CC1 [Example 39] — 3.4-fold higher, 227 nM
- CC(=O)N(Cc1ccccc1F)[C@@H]1CCN(C2CCN(C(=O)c3c(C)cccc3C)CC2)C1 [Example 14] — 5.1-fold lower, 13 nM
- COCC(=O)N(Cc1ccccc1F)[C@@H]1CCN(C2CCN(C(=O)c3c(Cl)cccc3Cl)CC2)C1 [Example 44] — 36-fold lower, 1.84 nM
- Cc1cccc(C)c1C(=O)N1CCC(N2CC[C@@H](N(Cc3ccccc3)C(=O)c3ccccc3)C2)CC1 [Example 12] — 16-fold lower, 4.06 nM
- Cc1onc(-c2ccccc2)c1C(=O)N1CCC(N2CC[C@@H](N(Cc3ccccc3)C(=O)C3CC3)C2)CC1 [Example 41] — 160-fold lower, 0.41 nM
- Cc1cccc(C)c1C(=O)N1CCC(N2CC[C@@H](N(Cc3ccccc3)C(=O)CC(F)(F)F)C2)CC1 [Example 6] — 190-fold lower, 0.34 nM
- COCC(=O)N(Cc1cccc(F)c1)[C@@H]1CCN(C2CCN(C(=O)c3c(C)ccnc3C)CC2)C1 [Example 25] — 13-fold lower, 5.04 nM
- COCC(=O)N(Cc1cc(F)ccc1F)[C@@H]1CCN(C2CCN(C(=O)c3c(C)ccnc3C)CC2)C1 [Example 23] — 47-fold lower, 1.42 nM
- CCOC(=O)N(Cc1ccccc1)[C@@H]1CCN(C2CCN(C(=O)c3c(C)ncnc3C)CC2)C1 [Example 38] — 2-fold higher, 135 nM
- Cc1cccc(C)c1C(=O)N1CCC(N2CC[C@@H](N(Cc3ccc(F)cc3)C(=O)C3CC3)C2)CC1 [Example 15] — 1.9-fold lower, 34.1 nM
- COCCC(=O)N(Cc1ccccc1)[C@@H]1CCN(C2CCN(C(=O)c3c(C)cccc3C)CC2)C1 [Example 13] — 14-fold lower, 4.83 nM
- CCc1cnn(C)c1C(=O)N1CCC(N2CC[C@@H](N(Cc3ccccc3)C(=O)C3CC3)C2)CC1 [Example 43] — within 1.5-fold, 59.8 nM
- Cc1ccnc(C)c1C(=O)N1CCC(N2CC[C@@H](N(Cc3cccc(F)c3)C(=O)C3CC(F)(F)C3)C2)CC1 [Example 32] — 1.9-fold lower, 34.7 nM
- Cc1cccc(C(=O)N2CCC(N3CC[C@@H](N(Cc4ccccc4)C(=O)CC4CC4)C3)CC2)c1Cl [Example 46] — 1.6-fold higher, 107 nM
- Cc1ccnc(C)c1C(=O)N1CCC(N2CC[C@@H](N(Cc3ccccc3)C(=O)C3CC(F)(F)C3)C2)CC1 [Example 22] — 55-fold lower, 1.21 nM
- Cc1ccc(C(=O)N2CCC(N3CC[C@@H](N(Cc4ccccc4)C(=O)C4CC4)C3)CC2)c(C)c1 [Example 20] — 3.3-fold higher, 221 nM
- COCC(=O)N(Cc1cccc(F)c1F)[C@@H]1CCN(C2CCN(C(=O)c3c(C)ccnc3C)CC2)C1 [Example 26] — 10-fold lower, 6.51 nM
- CC(=O)N(Cc1ccccc1)[C@@H]1CCN(C2CCN(C(=O)c3c(C)cccc3C)CC2)C1 [Example 11] — 22-fold lower, 3.05 nM
- Cc1ncnc(C)c1C(=O)N1CCC(C)(N2CC[C@@H](N(Cc3ccccc3)C(=O)C3CC3)C2)CC1 [Example 63] — 8.1-fold lower, 8.18 nM
- Cc1ccnc(C)c1C(=O)N1CCC(C)(N2CC[C@@H](N(Cc3ccccc3)C(=O)C3CC3)C2)CC1 [Example 62] — 190-fold lower, 0.34 nM
- COCC(=O)N(Cc1ccccc1F)[C@@H]1CCN(C2(C)CCN(C(=O)c3c(C)ncnc3C)CC2)C1 [Example 64] — 4-fold lower, 16.6 nM
- Cc1ccnc(C)c1C(=O)N1CCC(N2CC[C@@H](N(Cc3ccccc3F)C(=O)C3CC(F)(F)C3)C2)CC1 [Example 28] — 5.3-fold lower, 12.4 nM
- Cc1cccc(C)c1C(=O)N1CCC(N2CC[C@@H](N(Cc3ccccc3)C(=O)C(C)C)C2)CC1 [Example 8] — 110-fold lower, 0.63 nM
- COCC(=O)N(Cc1ccccc1F)[C@@H]1CCN(C2CCN(C(=O)c3c(C)ccnc3C)CC2)C1 [Example 24] — 1.8-fold higher, 119 nM

same assay, conditions: HIV cell fusion assay; unit μm printed under the cell; read-out: IC50

Point of comparison: `O=C(c1ccccc1)N1CCC(N2CC[C@@H](N(Cc3ccccc3)C(=O)C3CC3)C2)CC1` [Example 56], IC50 1900 nM. Against it:
- COc1ccc(C(=O)N2CCC(N3CC[C@@H](N(Cc4ccccc4)C(=O)CC4CC4)C3)CC2)cc1C [Example 57] — 3.3-fold higher, 6200 nM

same assay, conditions: Human immunodeficiency virus 1, HeLaP4

Point of comparison: `CCCNC(=O)N(Cc1ccccc1F)[C@@H]1CCN(C2CCN(C(=O)c3c(C)cccc3C)CC2)C1` [Example 59, N-[(3R)-1-[1-(2,6-dimethylbenzoyl)piperidin-4-yl]pyrrolidin-3-yl]-N-(2-fluorobenzyl)-N′-propylurea], IC50 0.02 nM. Against it:
- Cc1cccc(C)c1C(=O)N1CCC(N2CC[C@@H](N(Cc3ccccc3)S(C)(=O)=O)C2)CC1 [Example 58, N-benzyl-N-{(3R)-1-[1-(2,6-dimethylbenzoyl)piperidin-4-yl]pyrrolidin-3-yl}methanesulfonamide] — 4600-fold higher, 92.5 nM
- Cc1ccnc(C)c1C(=O)N1[C@@H]2CC[C@H]1C[C@H](N1CC[C@@H](N(Cc3ccccc3)C(=O)C3CC3)C1)C2 [Example 70, N-benzyl-N-((3R)-1-[(3-exo)-8-[(2,4-dimethylpyridin-3-yl)carbonyl]-8-azabicyclo[3.2.1]oct-3-yl]pyrrolidin-3-yl)cyclopropanecarboxamide] — 130-fold higher, 2.65 nM
- Cc1cccc(C)c1C(=O)N1CCC(N2CC[C@@H](N(Cc3cccc(Cl)c3)C(=O)C3CC3)C2)CC1 [Example 1, N-(3-chlorobenzyl)-N-{(3R)-1-[1-(2,6-dimethylbenzoyl)piperidin-4-yl]pyrrolidin-3-yl}cyclopropanecarboxamide] — 7-fold higher, 0.14 nM
- Cc1ccnc(C)c1C(=O)N1CCC(N2CC[C@@H](N(Cc3ccccc3)C(=O)C3CC3)C2)[C@H](C)C1 (stereo partly drawn) [Example 60, N-benzyl-N-((3R)-1-{1-[(2,4-dimethylpyridin-3-yl)carbonyl]-3-methylpiperidin-4-yl}pyrrolidin-3-yl)cyclopropanecarboxamide] — 220-fold higher, 4.46 nM
